Measured values: US20260021079A1, “NOX INHIBITORS FOR USE IN THE TREATMENT OF ALPORT SYNDROME” (CALLIDITAS THERAPEUTICS SUISSE SA, priority 2022, published 2026)

Experiments:
Type in all cases: in vivo
[1] = system: homozygous Col4a3 ko/ko mice; test: Quantitative detection of mouse Cystatin C in plasma (ELISA), Col4a3 Alport mouse model; settings: end of study (4 weeks of treatment); first experiment
Excerpt: (§1) Mice homozygous for the Col4a3 ko/ko targeted mutation are a model for autosomal-recessive Alport syndrome (Cosgrove et al. Kidney Int. 2007, 71(7), p. 615-618). Animals bred on a 129/SvJ background develop glomerulonephritis and die at about 8.5 weeks of age (Jackson Laboratory strain: #002908). Gross et al. Kidney Int. 2003, 63(2), p. 438-446) reported a mean survival of 10 weeks. Since homozygous Col4a3 ko/ko mice reflect key features of Alport syndrome, this mouse model is useful to test potential drug candidates. A number of 40 homozygous Col4a3 ko/ko mice, allocated to 4 groups (vehicle, setanaxib, Ramipril, and setanaxib+Ramipril combination) with n=10 animals each, were used for the study. Starting at an age of 4 weeks, animals were treated with vehicle and/or compound daily per oral gavage for 4 weeks. The reference compound Ramipril was administered via drinking water, prepared on a weekly basis, but changed at the latest after 4 days. Additionally, one wild-type control group (Col4A3+/+) without any treatment was enclosed in the study with n=6 animals. At study end the animals were euthanized by i.p. injection of pentobarbital and terminal blood was collected by heart puncture in EDTA coated tubes. […] Cystatin C plasma levels of all animals at the end of the study were analyzed. […]

[2] = system: homozygous Col4a3 ko/ko mice; test: Albumin/creatinine ratio in urine in Col4a3 Alport mouse model; settings: Ramipril 10 mg/kg
Excerpt: (§2) Mice homozygous for the Col4a3 ko/ko targeted mutation are a model for autosomal-recessive Alport syndrome (Cosgrove et al. Kidney Int. 2007, 71(7), p. 615-618). Animals bred on a 129/SvJ background develop glomerulonephritis and die at about 8.5 weeks of age (Jackson Laboratory strain: #002908). Gross et al. Kidney Int. 2003, 63(2), p. 438-446) reported a mean survival of 10 weeks. Since homozygous Col4a3 ko/ko mice reflect key features of Alport syndrome, this mouse model is useful to test potential drug candidates. A number of 40 homozygous Col4a3 ko/ko mice, allocated to 4 groups (vehicle, setanaxib, Ramipril, and setanaxib+Ramipril combination) with n=10 animals each, were used for the study. Starting at an age of 4 weeks, animals were treated with vehicle and/or compound daily per oral gavage for 4 weeks. The reference compound Ramipril was administered via drinking water, prepared on a weekly basis, but changed at the latest after 4 days. Additionally, one wild-type control group (Col4A3+/+) without any treatment was enclosed in the study with n=6 animals. […] Albumin and Creatinine levels were evaluated by ELISA in urine samples of 8 animals per treatment group. Treatment 40 homozygous Col4a3 ko/ko mice, allocated to 4 groups with n=10 animals each, were used for this study. Animals were treated with vehicle or compound daily per oral gavage for 4 weeks starting at an age of 4 weeks. The reference compound Ramipril was administered via drinking water, prepared on a weekly basis, but changed latest after 4 days. Additionally, one wild-type control group without any treatment was enclosed in the study with n=6 animals. The treatment groups are outlined in the table below: […] In case no urine was produced during the fixation process, massage of the abdomen was allowed. Urine was collected in Eppendorf Tubes, spun at 800×g at room temperature for 10 minutes and supernatant was transferred into a fresh tube and frozen at -20° C. until use. Creatinine and Albumin levels in urine supernatants, collected from 8 animals each group […] timepoints, at baseline, 6 and 8 weeks of age (n=96), were analyzed. Creatinine levels in urine samples of all animals (n=8 per group, 4 groups, 3 time points, total n=96) were analyzed. For that purpose, an enzymatic assay from Diazyme® (DZ072B) was used. The analysis was performed according to manufacturer protocol with minor modifications introduced for use in 96 well plates and readout in standard plate photometer (Cytation 5, Biotek). Albumin levels in urine supernatants, collected from each animal per group at 3 time points (total n=96) were analyzed using an Albumin Mouse ELISA Kit (ab108792; Abcam) according to manufacturer protocol.

[3] = system: homozygous Col4a3 ko/ko mice; test: Blood Urea Nitrogen (BUN) colorimetric detection in plasma, Col4a3 Alport mouse model; settings: end of study (4 weeks of treatment); first experiment
Excerpt: as §1, with “BUN” for “Cystatin C”

[4] = system: homozygous Col4a3 ko/ko mice; test: Albumin levels in urine (Albumin Mouse ELISA) in Col4a3 Alport mouse model; settings: setanaxib 60 mg/kg daily oral gavage, Ramipril 10 mg/kg via drinking water; for Albumin levels in urine vs vehicle: age 6 weeks (2 weeks of treatment)
Excerpt: as §2, with “analyzed.” for “analyzed. Creatinine levels in urine samples of all animals (n=8 per group, 4 groups, 3 time points, total n=96) were analyzed. For that purpose, an enzymatic assay from Diazyme® (DZ072B) was used. The analysis was performed according to manufacturer protocol with minor modifications introduced for use in 96 well plates and readout in standard plate photometer (Cytation 5, Biotek).”, “protocol. Briefly, urine samples were centrifuged at 800×g for 10 minutes and diluted into Diluent N. 50 μL of albumin standard or sample was added per well and incubated for 2 hours. After a washing step, 50 μL of biotinylated albumin antibody was added to each well and incubated for 1 hour. […] Albumin levels were determined by reading the absorbance at 450 nm immediately after adding the stop solution.” for “protocol.”

[5] = age 8 weeks (4 weeks of treatment), setanaxib 60 mg/kg

Structure (SMILES) | Cystatin C plasma levels vs vehicle [1] | Albumin to Creatinine ratio in urine vs vehicle ([2]; age 6 weeks, first experiment, setanaxib 60 mg/kg) | Albumin to Creatinine ratio in urine vs vehicle ([2]; age 6 weeks, second experiment) | Albumin to Creatinine ratio in urine vs vehicle [2, 5] | BUN plasma levels vs vehicle [3] | Albumin levels in urine vs vehicle ([4]; first experiment) | Albumin levels in urine vs vehicle ([4]; second experiment) | Albumin to Creatinine ratio in urine vs vehicle ([2]; age 6 weeks, both first and second experiment, setanaxib 60 mg/kg) | Albumin levels in urine vs vehicle ([4]; both experiments / experiment not specified) | Albumin levels in urine vs control (vehicle) ([4]; age 8 weeks (4 weeks of treatment))
CCOC(=O)[C@H](CCc1ccccc1)N[C@@H](C)C(=O)N1[C@H](C(=O)O)C[C@@H]2CCC[C@@H]21 [Ramipril, (2S,3aS,6aS)-1-[(2S)-2-[[(2S)-1-ethoxy-1-oxo-4-phenylbutan-2-yl]amino]propanoyl]-3,3a, 4,5,6,6a-hexahydro-2H-cyclopenta[b]pyrrole-2-carboxylic acid] | significant decrease | reduced the Albumin to Creatinine ratio, but without reaching significance | the reduction did reach significance | significantly decreased | significant decrease | slightly reduced the amount of albumin in the urine | reduced to a greater extent | – | – | –
CN(C)c1cccc(-c2c3c(=O)n(-c4ccccc4Cl)[nH]c3cc(=O)n2C)c1 [setanaxib, 2-(2-chlorophenyl)-4-[3-(dimethylamino)phenyl]-5-methyl-1H-pyrazolo[4,3-c]pyridine-3,6(2H,5H)-dione] | significant decrease | – | – | average decrease | significant decrease | – | – | trend in both the first and second experiment towards an increase | trend towards increased Albumin levels | decrease in average Albumin levels
